From publication PMC11505594, “Design, Synthesis, and Anti-Melanogenic Activity of 2-Mercaptomethylbenzo[d]imidazole Derivatives Serving as Tyrosinase Inhibitors: An In Silico, In Vitro, and In Vivo Exploration” (Antioxidants, 2024)
Like-named read-outs stand apart in the source and are kept apart here.

What was measured:
zebrafish larvae = assay: Melanogenesis (depigmentation) assay using zebrafish embryos; type: in vivo
Method: To assess depigmentation in vivo, wild-type zebrafish (Danio rerio) embryos were acquired free of charge from the Zebrafish Center for Disease Modeling (ZCDM) located at Chungnam National University in Daejeon, Republic of Korea. The zebrafish were raised in tanks maintained at 28 °C in the ZCDM. The tanks were oxygenated, and the tank lights were turned off for 10 h and on for 14 h. The zebrafish embryos used for in vivo depigmentation experiments were obtained through natural mating. The E3 solution for zebrafish embryos was prepared by dissolving 19.9 mg magnesium sulfate, 6.4 mg potassium chloride, 18.3 mg calcium chloride, and 146.1 mg sodium chloride in 500 mL distilled water. E3-MB (methylene blue) solution was prepared by adding MB to the E3 solution to create a 0.001% MB solution. The acquired zebrafish embryos were transferred to a culture dish containing the E3-MB solution. The culture dish was incubated at 28 °C until zebrafish embryos were used. Since zebrafish embryos are sensitive and can be easily killed by the chorion removal process 20 h post-fertilization (20 hpf), the chorion was removed at 24 hpf through treatment with pronase (Sigma-Aldrich, St. Louis, MO, USA). Five dechorionated zebrafish embryos were transferred to each well of 48-well microplates containing 250 μL E3 solution. […] Zebrafish larvae were anesthetized with tricaine at 76 hpf and placed on a 1% methylcellulose block to determine the degree of zebrafish larva depigmentation. Dorsal and lateral images of the zebrafish larvae were acquired using an SMZ745T microscope (Nikon, Tokyo, Japan). The pigmented areas of the dorsal and lateral images were obtained using CS analyzer 3.0 image analysis software (ATTO, Tokyo, Japan). Each assay (n = 7) was independently performed two times.

[1] = Reactive oxygen species removal activity assay (SIN-1, DCFH); conditions: test samples 40 μM; SIN-1 10 μM
Method: To assess reactive oxygen species (ROS) removal activity, a DCFH solution was prepared by mixing 50 μL DCFH-DA (1.25 mM), 50 μL esterase (0.6 unit/μL), and 4.9 mL phosphate buffer (50 mM) and maintained in the dark for 30 min. The SIN-1 solution (10 μL) was added to each well of a 96-black well that contained the test sample (10 μL; 2-MMBI derivatives 1–10 and Trolox [positive material]) and phosphate buffer (180 μL). 2-MMBI derivatives, Trolox, and SIN-1 were exposed at final concentrations of 40, 40, and 10 μM, respectively. The prepared DCFH solution (50 μL) was added to each well after 10 min. The fluorescence intensity of 2′,7′-dichlorofluorescein in the wells was measured at 535 nm using a microplate reader (Berthold Advances GmbH & Co., Bad Wildbad, Germany) with an excitation wavelength of 485 nm. Each experiment was conducted independently four times.

[2] = Copper(II) ion-chelating activity using pyrocatechol violet; conditions: test samples 100 μM, pH 6.0
Method: Copper(II) ion-chelating activity was measured using pyrocatechol violet reagent, a copper(II)-chelating agent. Copper(II) sulfate solution (10 μL, 1 mg/mL) was added to each well of a 96-well microplate containing acetic acid–sodium acetate buffer (280 μL, 50 mM [pH 6.0]), 2-MMBI derivative (1–10; 10 μL, 100 μM as a final concentration), and pyrocatechol violet (6 μL, 4 mM). Absorbance was measured at 632 nm using a VersaMax™ reader after the microplate was incubated for 20 min at 24 °C. Cu(II) ion-chelating activity (%) = 100 × [(Abscon − Abssam)/Abscon] where Abscon and Abssam are the absorbances of the control and samples, respectively. Each experiment was independently performed in triplicate.

B16F10 cellular TYR = target: T1, B16F10 cellular TYR (Mus musculus, UniProt P11344); assay: TYR activity assay in B16F10 cells; type: cell-based, murine; conditions: 2, 5, and 10 μM; α-MSH 1 μM plus IBMX 200 μM; 72 h
T1 construct: The in situ cellular TYR activities of the 2-MMBI derivatives were investigated using B16F10 cells; endogenous in cells; host or cells: B16F10 murine melanoma cells stimulated with alpha-MSH and IBMX
T1 sequence (P11344 19-533): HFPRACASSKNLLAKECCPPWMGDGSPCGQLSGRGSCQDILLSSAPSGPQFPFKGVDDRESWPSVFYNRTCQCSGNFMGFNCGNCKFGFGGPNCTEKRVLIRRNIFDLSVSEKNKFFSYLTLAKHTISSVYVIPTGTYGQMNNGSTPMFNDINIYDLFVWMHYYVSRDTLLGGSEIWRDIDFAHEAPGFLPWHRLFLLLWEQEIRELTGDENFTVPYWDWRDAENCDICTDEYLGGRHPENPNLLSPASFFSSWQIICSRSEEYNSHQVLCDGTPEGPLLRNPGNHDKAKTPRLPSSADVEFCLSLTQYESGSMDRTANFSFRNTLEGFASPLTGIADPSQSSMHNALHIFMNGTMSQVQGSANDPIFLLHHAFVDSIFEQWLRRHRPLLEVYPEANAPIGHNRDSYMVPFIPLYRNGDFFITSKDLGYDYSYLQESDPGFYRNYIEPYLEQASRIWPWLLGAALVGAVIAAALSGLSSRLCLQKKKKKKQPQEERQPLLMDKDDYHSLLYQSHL
Method: A 6-well plate containing 5 × 10^3 B16F10 cells per well was incubated (37 °C and 5% CO2) for 1 day. […] Stimulators (1 μM α-MSH and 200 μM IBMX) were added after 1 h, and the plate was incubated (37 °C and 5% CO2) for 72 h. After washing with PBS, 100 μL lysis buffer consisting of 1% Triton X-100, 1 mM phenylmethylsulfonyl fluoride, and 50 mM sodium phosphate buffer (pH 6.5) in a volume ratio of 1:1:18 was added to each well. Following an incubation period of 30 min at −80 °C, the cell lysates were centrifuged at 12,000× g for 10 min at 4 °C to obtain the supernatants. […] Each assay was independently performed three times.

B16F10 cells = assay: Melanin content measurement assay in B16F10 cells; type: cell-based, murine; conditions: α-MSH 1 μM plus IBMX 200 μM, 72 h
Method: A 6-well plate containing 5 × 10^3 B16F10 cells per well was incubated at 37 °C and 5% CO2 for 1 day. […] After 1 h, 1 μM α-MSH and 200 μM IBMX were added to each well, and the plate was subsequently incubated at 37 °C and 5% CO2 for 72 h. The cells were exposed to […] 1N-NaOH solution and cultured at 60 °C for 1 h after washing with PBS. The lysates were transferred to each well of a 96-well plate, and the optical density at 405 nm was recorded using a VersaMax™ reader. […] Each assay was independently performed three times.

mushroom TYR [3] = target: T2, mushroom TYR (Agaricus bisporus, UniProt C7FF04); assay: Kinetic studies on mushroom TYR (Lineweaver–Burk and Dixon plots); type: biochemical; conditions: L-dopa as substrate
Method: Kinetic experiments were performed to obtain Lineweaver–Burk plots for the analysis of mushroom TYR kinetics. Mushroom TYR solution (20 μL, 150 units/mL) was added to each well of a 96-well microplate containing 2-MMBI derivatives (10 μL; 0, 7.5, 15, and 30 μM for 1; 0, 5, 10, and 20 μM for 3 and 8; and 0, 12.5, 25, and 50 μM for 9) and a substrate solution (170 μL) composed of sodium phosphate buffer (17.2 mM; pH 6.5) and L-dopa (various concentrations: 0.5, 1, 2, 4, 8, and 16 mM). […] Lineweaver–Burk plots for each 2-MMBI derivative were obtained by plotting the value of 1/[substrate] against the value of (min/ΔOD475). Lineweaver–Burk plots were transformed into corresponding Dixon plots by plotting the value of (min/ΔOD475) against the value of the 2-MMBI derivative concentration.

mushroom TYR [4] = target: T2, mushroom TYR; assay: Mushroom TYR activity assay with and without CuSO4; type: biochemical; conditions: 20 μM derivative, L-tyrosine
Method: To determine whether copper(II) ions influence the TYR-inhibitory activity of 2-MMBI derivatives, the effects of these derivatives on mushroom TYR activity were measured with and without CuSO4. Briefly, mushroom TYR aqueous solution (20 μL, 1 unit/μL) was mixed with 2-MMBI derivatives (1, 3, and 8–10) (10 μL, final concentration: 20 μM) and with the substrate solution (170 μL), comprising 17.2 mM phosphate buffer (pH 6.5) and 345 μM L-tyrosine, in the presence or absence of CuSO4 (50 μL, final concentration: 50 μM) in each well of a 96-well plate. […] Each assay was carried out independently in triplicate.

[5] = DPPH radical removal assay; conditions: 500 μM; 30 min in the dark
Method: An aliquot (20-μL DMSO solution) of a test sample (5 mM 2-MMBI derivatives 1–10 and 5 mM vitamin C [positive material]) was added to each well of a 96-well microplate containing 180 μL DPPH methanol solution (0.2 mM). After the mixture was left in the dark at 22 °C for 30 min, the optical density at 517 nm was recorded using a VersaMax™ reader. Each experiment was conducted independently in triplicate.

ABTS●+ scavenging assay = conditions: 100 μM
Method: A 2.45 mM K2S2O8 aqueous solution was mixed with a 7-mM ABTS aqueous solution in a 1:1 volume ratio. The mixture was left at 20 °C in the dark for 19 h. To adjust the adequate absorbance (0.70 ± 0.01) at 732 nm, the mixture was diluted with methanol. The diluted ABTS^●+ mixture (90 μL) in each well of a 96-well plate was mixed with a test sample (2-MMBI derivatives 1–10 and Trolox [positive material]; 10 μL in EtOH/DMSO [9/1 (v/v)] solution). All test samples were tested at a final concentration of 100 μM. Prior to the measurement of well optical density at 732 nm at 1-min intervals for 10 min using a VersaMax™ reader, the test sample-ABTS^●+ mixture was stored for 2 min in the dark. Each experiment was conducted independently in triplicate.

T2 sequence (C7FF04 2-392): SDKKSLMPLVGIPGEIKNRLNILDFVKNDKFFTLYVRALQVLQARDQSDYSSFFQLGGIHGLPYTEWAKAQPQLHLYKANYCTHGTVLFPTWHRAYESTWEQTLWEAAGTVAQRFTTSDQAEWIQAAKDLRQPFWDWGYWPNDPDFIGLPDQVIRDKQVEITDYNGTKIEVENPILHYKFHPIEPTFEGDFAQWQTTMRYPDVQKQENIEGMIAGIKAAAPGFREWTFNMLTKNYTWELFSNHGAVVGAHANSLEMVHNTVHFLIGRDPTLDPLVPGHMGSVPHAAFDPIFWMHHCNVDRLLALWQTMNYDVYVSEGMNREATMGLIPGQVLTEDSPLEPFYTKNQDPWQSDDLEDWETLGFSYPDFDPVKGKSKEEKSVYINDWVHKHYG

**Q.** Which results are given for `O=[N+]([O-])c1ccc2[nH]c(CS)nc2c1` [Derivative 6, (5-Nitro-1H-benzo[d]imidazol-2-yl)methanethiol]?
**A.** depigmentation of zebrafish larvae at 0.03 and 0.1 mM (zebrafish larvae; 0.03 and 0.1 mM, 48 h): did not exhibit significant depigmentation; ROS scavenging activity [1]: stronger ROS scavenging efficacy than the other derivatives; copper chelating activity [2]: 35%

**Q.** Which “depigmentation of zebrafish larvae at 0.03 mM” value (zebrafish larvae; 0.03 mM, compared with kojic acid 20 mM, 48 h) does the source give for `Cc1ccc2[nH]c(CS)nc2c1` [Derivative 8, (5-Methyl-1H-benzo[d]imidazol-2-yl)methanethiol] here?
**A.** Its value is “much stronger depigmentation efficacy than kojic acid”.

**Q.** And the “effect on B16F10 cellular TYR activity” value (B16F10 cellular TYR)?
**A.** Its value is “significantly reduced stimulator-enhanced cellular TYR activity in a dose-dependent manner”.

**Q.** What about the “effect on B16F10 cellular melanin production at 10 μM” value (B16F10 cells) of the same molecule?
**A.** Its value is “inhibited melanin production more strongly than kojic acid”.

**Q.** And the “effect on B16F10 cellular melanin production at three concentrations” value (B16F10 cells; 2, 5, and 10 μM)?
**A.** The value was “significantly decreased the melanin levels increased by the stimulators in a concentration-dependent manner”.

**Q.** And the inhibition mechanism (mushroom TYR [3])?
**A.** The inhibition mechanism was “mixed TYR inhibitors”.

**Q.** And the inhibition at 20 µM (mushroom TYR [4]; CuSO4 50 μM added externally, read-out: inhibition of mushroom TYR activity with CuSO4)?
**A.** The inhibition at 20 µM was 63%.

**Q.** And the inhibition at 20 µM (mushroom TYR [4]; no CuSO4 added externally, read-out: inhibition of mushroom TYR activity without CuSO4)?
**A.** Its inhibition at 20 µM is 86 to 89%.

**Q.** With `O=c1cc(CO)occ1O` [Kojic acid, reference compound] as the molecule, how does the “depigmentation of zebrafish larvae, kojic acid” value (zebrafish larvae; 20 mM, 48 h, compared to control) read?
**A.** Its value is “significantly reduced melanin pigments”.

**Q.** What about the “pigmentation area of zebrafish larvae (CS analyzer, dorsal and lateral views)” value (zebrafish larvae; derivatives 0.03 and 0.1 mM, kojic acid 20 mM) of the same molecule?
**A.** The value was “significantly reduced pigmentation”.

**Q.** What about the “effect on B16F10 cellular melanin production at 10 μM” value (B16F10 cells) of the same molecule?
**A.** The value was “decreased the stimulator-induced melanin levels”.

**Q.** And the copper chelating activity [2]?
**A.** The copper chelating activity was 27%.

**Q.** For `O=C1O[C@H]([C@@H](O)CO)C(O)=C1O` [L-ASCORBIC acid, L-ascorbic acid], which “DPPH radical scavenging activity” value [5] is on record?
**A.** Its value is 97%.

**Q.** For `NC(=S)Nc1ccccc1` [PTU, phenylthiourea], which copper chelating activity [2] is on record?
**A.** Its copper chelating activity is 37%.

**Q.** What does the source list for `Cc1c(C)c2c(c(C)c1O)CCC(C)(C(=O)O)O2` (stereo not drawn) [Trolox, reference compound]?
**A.** ROS scavenging activity [1]: highest ROS scavenging activity; ABTS●+ inhibition (ABTS●+ scavenging assay): 99%
